Source: US11484576B2, “Methods of promoting corticospinal neuronal outgrowth in neuronal lesions using a pro-regenerative human osteopontin fragment” (THE CHILDREN'S MEDICAL CENTER CORPORATION, priority 2017, dated 2022)

Key:
[1] = system: mice with T10 lateral hemisection; experiment: Irregular ladder walking after spinal cord T10 lateral hemisection; type: in vivo, mouse; details: OPN/IGF1 treated group, T10 hemisection
Description: (§1) Injury Models. […] Briefly, a midline incision was made over the thoracic vertebrae, followed by a T10 laminectomy. The unilateral hemisection was then performed carefully using both scalpel and micro-scissors, avoiding, to the greatest extent, the damage of the spinal cord dura. The muscle layers were then sutured and the skin was secured with wound clips. All mice received post hoc histological analysis and those with spared CST axons (incomplete lateral hemisection) or with significant less CST axons on the contra-lesional side (over lateral hemisection) at the lumbar spinal cord (L3), exemplified in FIG. 9A, were excluded for behavioral analysis.
Virus and Protein Injection.
Irregular Ladder Walking. […] Briefly, the ladder was elevated 30 cm above the ground. […] To prevent animals from learning the pattern, the irregular pattern was changed from trial to trial. All trials were video recorded (Hotshot e64, 100 fps) and paw placement was analyzed twice by blinded observers. Steps with precise placement of the center of the palm on the rung (for both forelimbs and hindlimbs) and digits closed (for forelimbs) were defined as correct steps (hit). All other steps were recorded as errors, which included two types: 1) Miss: when crossing the ladder, the forelimb/hindlimb either completely miss the rung or contact the rung with the wrist/heel instead of the paw; 2) Slip: when crossing the ladder, the mice use a few digits instead of the paw to place on the rungs, causing the subsequent slip on the rungs. The results were expressed as both percentage of total errors and percentage of different placement categories (hit, miss and slip).
(§2) Pharmacological Treatment. […] All behavioral tests were then accomplished between 1-3 hours post administration.

[2] = system: injured mice; experiment: Adverse effects of systemic potassium channel blockers in injured mice; type: in vivo; details: injured mice treated with OPN/IGF1
Description: Chemicals and Antibodies. For systematic administration (i.p.), Quipazine [Sigma (Q1004), 0.2 mg/kg), SKF-82197 [Tocris (1447) 0.1 mg/kg], and 8-OH-DPAT [Tocris (0529), 0.1 mg/kg), 4AP [Sigma (275875), 1 mg/kg, 3 mg/kg), 4AP-MeOH [Santa Cruz (sc-267247), (1 mg/kg)] were dissolved in saline. Tamoxifen (Sigma, 10540-29-1) was dissolved in oil. For diphtheria toxin mediated cell ablation, we purchased the diptheria toxin from Sigma (D0564). For immunostaining, the primary antibody used were chicken anti-GFP [Abcam (Cat: ab13970)], rabbit anti-RFP [Abcam (Cat: ab34771)], rabbit anti-PKCγ [Santa Cruz (sc211)], rabbit anti-GFAP [DAKO (Z0334)]; rabbit anti-5-HT [Immunostar (20080)], rabbit-anti-IGFR [Santa Cruz (sc-712)] rabbit-anti-pIGFR[3 [Cell signaling technology (3024)], rabbit-anti-pS6 [Cell signaling technology (4857)], rat anti-CD68 [Bio-Rad (MCA 1957)], and Guinea pig-anti-Vglut1 [Synaptic Systems (135304)].
Pharmacological Treatment. […] A pilot experiment was performed and determined that 4AP (1 mg/kg, 3 mg/kg) and 4AP-MeOH (1 mg/kg) achieved their maximal effects within 1-3 hours post systematic administration (i.p.). […]

[3] = system: mice with T10 lateral hemisection; experiment: Ground walking and treadmill walking after T10 lateral hemisection; type: in vivo, mouse; details: i.p.
Description: as §1, §2

[4] = system: mice with unilateral photothrombotic stroke; experiment: Single pellet retrieval and irregular ladder walking after unilateral photothrombotic cortical stroke; type: in vivo, mouse; details: ischemic mice treated with OPN/IGF1
Description: The procedure of unilateral photothrombotic stroke was similar to that described elsewhere (Watson et al., 1985; Wahl et al., 2014). Briefly, mice were fixed in a stereotactic frame, with the skull exposed. To unilaterally cover the sensoromotor cortex, the cold light source (Zeiss, CL 1500HAL, 3000K) was positioned over an opaque template with an opening (a circle with a diameter of 2.5 mm) centered at (−0.5, 2.0 mm, anterior and lateral to the bregma) on the cortex contralateral to the preferred paw in the food pellet retrieval task. […] Lesion volumes were calculated when mice brains were fixed at the end point of the experiments.
Irregular Ladder Walking. […] All trials were video recorded (Hotshot e64, 100 fps) and paw placement was analyzed twice by blinded observers. […] All other steps were recorded as errors, which included two types: 1) Miss: when crossing the ladder, the forelimb/hindlimb either completely miss the rung or contact the rung with the wrist/heel instead of the paw; 2) Slip: when crossing the ladder, the mice use a few digits instead of the paw to place on the rungs, causing the subsequent slip on the rungs. The results were expressed as both percentage of total errors and percentage of different placement categories (hit, miss and slip).
Single pellet Retrieval. […] The success rate was calculated as: number of successful retrievals/total attempts per trail *100. […]

Nc1ccncc1CO [4-AP-MeOH, 4-aminopyridine-3-methanol]
error rate, irregular ladder walking, after 4-AP-MeOH ([1]; 1 mg/kg i.p.): 30%
error rate, irregular ladder walking, before 4-AP-MeOH [1]: about 48%
effect and safety compared to 4-AP [2]: significantly better effects with broader safety doses
recovery of treadmill walking performance compared to the control [3]: neither 4-AP nor 4-AP-MeOH had significant effects
additional effect on single pellet retrieval and irregular ladder walking [4]: further improvements on both assays
